Data as given in PubChem BioAssay AID2060626 (Molecular Pharmacology Branch, DTP, NCI, 2025).

The compounds below were run on 168753-222-R-J1-PDC complex spheroid viability (assay: Anticancer human tumor 168753-222-R-J1-PDC patient-derived bladder carcinoma cell line growth inhibition [CLK]). Settings: curve of first compound; second compound 0.0316 µM.
In short: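 Patient-derived tumor cells grown as complex spheroids with HUVEC endothelial cells and mesenchymal stem cells, treated with drug combinations. Concentrations descend in half-log steps from near clinical Cmax, or from 10 microM if Cmax unknown.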
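Note: viability measured after seven days of drug exposure.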

SMILES | IC50 [nM]
CCc1c2c(nc3ccc(O)cc13)-c1cc3c(c(=O)n1C2)COC(=O)[C@]3(O)CC + CNC(=O)c1ccc(Nc2nc(OC3CCCC3)c3c(-c4ccc5nc(C)oc5c4)c[nH]c3n2)c(OC)c1 | 118
Cn1ncnc1[C@H]1c2n[nH]c(=O)c3cc(F)cc(c23)N[C@@H]1c1ccc(F)cc1 + CNC(=O)c1ccc(Nc2nc(OC3CCCC3)c3c(-c4ccc5nc(C)oc5c4)c[nH]c3n2)c(OC)c1 | > 100
Nc1ccn(C2OC(CO)C(O)C2(F)F)c(=O)n1 (stereo unspecified) + CNC(=O)c1ccc(Nc2nc(OC3CCCC3)c3c(-c4ccc5nc(C)oc5c4)c[nH]c3n2)c(OC)c1 | 975
O=C(c1cc(Cc2n[nH]c(=O)c3ccccc23)ccc1F)N1CCN(C(=O)C2CC2)CC1 + CNC(=O)c1ccc(Nc2nc(OC3CCCC3)c3c(-c4ccc5nc(C)oc5c4)c[nH]c3n2)c(OC)c1 | > 10000
O=c1[nH]cc(F)c(=O)[nH]1 + CNC(=O)c1ccc(Nc2nc(OC3CCCC3)c3c(-c4ccc5nc(C)oc5c4)c[nH]c3n2)c(OC)c1 | > 10000

Same assay, conditions: curve of first compound; second compound 0.1 µM

SMILES | IC50 [nM]
CCc1c2c(nc3ccc(O)cc13)-c1cc3c(c(=O)n1C2)COC(=O)[C@]3(O)CC + CNC(=O)c1ccc(Nc2nc(OC3CCCC3)c3c(-c4ccc5nc(C)oc5c4)c[nH]c3n2)c(OC)c1 | 201
Cn1ncnc1[C@H]1c2n[nH]c(=O)c3cc(F)cc(c23)N[C@@H]1c1ccc(F)cc1 + CNC(=O)c1ccc(Nc2nc(OC3CCCC3)c3c(-c4ccc5nc(C)oc5c4)c[nH]c3n2)c(OC)c1 | > 100
Nc1ccn(C2OC(CO)C(O)C2(F)F)c(=O)n1 (stereo unspecified) + CNC(=O)c1ccc(Nc2nc(OC3CCCC3)c3c(-c4ccc5nc(C)oc5c4)c[nH]c3n2)c(OC)c1 | 629
O=C(c1cc(Cc2n[nH]c(=O)c3ccccc23)ccc1F)N1CCN(C(=O)C2CC2)CC1 + CNC(=O)c1ccc(Nc2nc(OC3CCCC3)c3c(-c4ccc5nc(C)oc5c4)c[nH]c3n2)c(OC)c1 | > 10000
O=c1[nH]cc(F)c(=O)[nH]1 + CNC(=O)c1ccc(Nc2nc(OC3CCCC3)c3c(-c4ccc5nc(C)oc5c4)c[nH]c3n2)c(OC)c1 | > 10000

Same assay, conditions: curve of first compound; second compound 0.316 µM

SMILES | IC50 [nM]
CCc1c2c(nc3ccc(O)cc13)-c1cc3c(c(=O)n1C2)COC(=O)[C@]3(O)CC + CNC(=O)c1ccc(Nc2nc(OC3CCCC3)c3c(-c4ccc5nc(C)oc5c4)c[nH]c3n2)c(OC)c1 | 51.8
Cn1ncnc1[C@H]1c2n[nH]c(=O)c3cc(F)cc(c23)N[C@@H]1c1ccc(F)cc1 + CNC(=O)c1ccc(Nc2nc(OC3CCCC3)c3c(-c4ccc5nc(C)oc5c4)c[nH]c3n2)c(OC)c1 | > 100
Nc1ccn(C2OC(CO)C(O)C2(F)F)c(=O)n1 (stereo unspecified) + CNC(=O)c1ccc(Nc2nc(OC3CCCC3)c3c(-c4ccc5nc(C)oc5c4)c[nH]c3n2)c(OC)c1 | 157
O=C(c1cc(Cc2n[nH]c(=O)c3ccccc23)ccc1F)N1CCN(C(=O)C2CC2)CC1 + CNC(=O)c1ccc(Nc2nc(OC3CCCC3)c3c(-c4ccc5nc(C)oc5c4)c[nH]c3n2)c(OC)c1 | > 10000
O=c1[nH]cc(F)c(=O)[nH]1 + CNC(=O)c1ccc(Nc2nc(OC3CCCC3)c3c(-c4ccc5nc(C)oc5c4)c[nH]c3n2)c(OC)c1 | > 10000

Same assay, conditions: curve of first compound; second compound 1 µM

SMILES | IC50 [nM]
CCc1c2c(nc3ccc(O)cc13)-c1cc3c(c(=O)n1C2)COC(=O)[C@]3(O)CC + CNC(=O)c1ccc(Nc2nc(OC3CCCC3)c3c(-c4ccc5nc(C)oc5c4)c[nH]c3n2)c(OC)c1 | < 3.16
Cn1ncnc1[C@H]1c2n[nH]c(=O)c3cc(F)cc(c23)N[C@@H]1c1ccc(F)cc1 + CNC(=O)c1ccc(Nc2nc(OC3CCCC3)c3c(-c4ccc5nc(C)oc5c4)c[nH]c3n2)c(OC)c1 | < 0.316
Nc1ccn(C2OC(CO)C(O)C2(F)F)c(=O)n1 (stereo unspecified) + CNC(=O)c1ccc(Nc2nc(OC3CCCC3)c3c(-c4ccc5nc(C)oc5c4)c[nH]c3n2)c(OC)c1 | < 31.6
O=C(c1cc(Cc2n[nH]c(=O)c3ccccc23)ccc1F)N1CCN(C(=O)C2CC2)CC1 + CNC(=O)c1ccc(Nc2nc(OC3CCCC3)c3c(-c4ccc5nc(C)oc5c4)c[nH]c3n2)c(OC)c1 | < 31.6
O=c1[nH]cc(F)c(=O)[nH]1 + CNC(=O)c1ccc(Nc2nc(OC3CCCC3)c3c(-c4ccc5nc(C)oc5c4)c[nH]c3n2)c(OC)c1 | < 31.6

Same assay, conditions: curve of first compound; second compound 3.16 µM

SMILES | IC50 [nM]
CCc1c2c(nc3ccc(O)cc13)-c1cc3c(c(=O)n1C2)COC(=O)[C@]3(O)CC + CNC(=O)c1ccc(Nc2nc(OC3CCCC3)c3c(-c4ccc5nc(C)oc5c4)c[nH]c3n2)c(OC)c1 | < 3.16
Cn1ncnc1[C@H]1c2n[nH]c(=O)c3cc(F)cc(c23)N[C@@H]1c1ccc(F)cc1 + CNC(=O)c1ccc(Nc2nc(OC3CCCC3)c3c(-c4ccc5nc(C)oc5c4)c[nH]c3n2)c(OC)c1 | < 0.316
Nc1ccn(C2OC(CO)C(O)C2(F)F)c(=O)n1 (stereo unspecified) + CNC(=O)c1ccc(Nc2nc(OC3CCCC3)c3c(-c4ccc5nc(C)oc5c4)c[nH]c3n2)c(OC)c1 | < 31.6
O=C(c1cc(Cc2n[nH]c(=O)c3ccccc23)ccc1F)N1CCN(C(=O)C2CC2)CC1 + CNC(=O)c1ccc(Nc2nc(OC3CCCC3)c3c(-c4ccc5nc(C)oc5c4)c[nH]c3n2)c(OC)c1 | < 31.6
O=c1[nH]cc(F)c(=O)[nH]1 + CNC(=O)c1ccc(Nc2nc(OC3CCCC3)c3c(-c4ccc5nc(C)oc5c4)c[nH]c3n2)c(OC)c1 | < 31.6

Same assay, conditions: curve of first compound; second compound 10 µM

SMILES | IC50 [nM]
CCc1c2c(nc3ccc(O)cc13)-c1cc3c(c(=O)n1C2)COC(=O)[C@]3(O)CC + CNC(=O)c1ccc(Nc2nc(OC3CCCC3)c3c(-c4ccc5nc(C)oc5c4)c[nH]c3n2)c(OC)c1 | < 3.16
